Publication PMC10536928, “Discovery of New Pyrrolo[2,3-d]pyrimidine Derivatives as Potential Multi-Targeted Kinase Inhibitors and Apoptosis Inducers” (Pharmaceuticals, 2023)

Assays:
[1] = test system: epithelioid cervix carcinoma (HeLa); experiment: MTT cytotoxicity assay; type: cell-based; details: Homo sapiens, 24 h exposure, mean ± SD of triplicate
[2] = test system: mammary gland cancer (MCF-7); experiment: MTT cytotoxicity assay; type: cell-based; details: Homo sapiens, MCF7, 24 h, 24 h exposure, mean ± SD of triplicate
Protocol: (§1) The cytotoxic effects of compounds 5a–m were evaluated using a standard MTT method against four different cancer cell lines, namely mammary gland cancer (MCF-7), hepatocellular carcinoma (HepG2), breast cancer (MDA-MB-231), and epithelioid cervix carcinoma (HeLa). […] These findings highlight the potential of these compounds as candidates for further development as cytotoxic agents for cancer treatment.
(§2) The cytotoxicity of compounds 5a–m was assessed against various cancer cell lines and one normal cell line using the described methodology. In brief, the cells were cultured in 96-well plates with a density of 1.0 × 10^4 cells per well, supplemented with 10% fetal bovine serum (FBS), an antibiotic cocktail, and RPMI 11,640 medium. The cells were then incubated for 48 h with 5% CO2 and 100% relative humidity at 37 °C. […] Following treatment, the addition of 20 µL of MTT solution was added to each well and incubation was continued for another 4 h, after which dimethyl sulfoxide (100 µL) was used to dissolve the resulting insoluble formazan. The absorbance was measured at 570 nm using a BioTek EXL 800 plate reader (Agilent Technologies, CA, USA). By comparing the absorbance of treated samples to untreated samples, the relative cell viability percentage was calculated as (A570 of treated samples/A570 of untreated sample) × 100. The IC50 values were determined based on triplicate measurements.

[3] = test system: hepatocellular carcinoma (HepG2); experiment: MTT cytotoxicity assay; type: cell-based; details: Homo sapiens, 24 h exposure, mean ± SD of triplicate
Protocol: as §1, §2

[4] = test system: breast cancer (MDA-MB-231); experiment: MTT cytotoxicity assay; type: cell-based; details: Homo sapiens, 24 h exposure, mean ± SD of triplicate
Protocol: as §1, §2

[5] = test system: four different cancer cell lines (MCF-7, HepG2, MDA-MB-231, HeLa); experiment: MTT cytotoxicity assay, range over the four cell lines; type: cell-based; details: read-out: IC50 values, range over the tested cancer cell lines
Protocol: as §1, §2

[6] = target: T1, Her2 (Homo sapiens, UniProt P04626); experiment: In vitro protein kinase inhibition assay (ELISA kit); type: biochemical; details: triplicate
T1 construct: purchased
T1 sequence (P04626 23-1255): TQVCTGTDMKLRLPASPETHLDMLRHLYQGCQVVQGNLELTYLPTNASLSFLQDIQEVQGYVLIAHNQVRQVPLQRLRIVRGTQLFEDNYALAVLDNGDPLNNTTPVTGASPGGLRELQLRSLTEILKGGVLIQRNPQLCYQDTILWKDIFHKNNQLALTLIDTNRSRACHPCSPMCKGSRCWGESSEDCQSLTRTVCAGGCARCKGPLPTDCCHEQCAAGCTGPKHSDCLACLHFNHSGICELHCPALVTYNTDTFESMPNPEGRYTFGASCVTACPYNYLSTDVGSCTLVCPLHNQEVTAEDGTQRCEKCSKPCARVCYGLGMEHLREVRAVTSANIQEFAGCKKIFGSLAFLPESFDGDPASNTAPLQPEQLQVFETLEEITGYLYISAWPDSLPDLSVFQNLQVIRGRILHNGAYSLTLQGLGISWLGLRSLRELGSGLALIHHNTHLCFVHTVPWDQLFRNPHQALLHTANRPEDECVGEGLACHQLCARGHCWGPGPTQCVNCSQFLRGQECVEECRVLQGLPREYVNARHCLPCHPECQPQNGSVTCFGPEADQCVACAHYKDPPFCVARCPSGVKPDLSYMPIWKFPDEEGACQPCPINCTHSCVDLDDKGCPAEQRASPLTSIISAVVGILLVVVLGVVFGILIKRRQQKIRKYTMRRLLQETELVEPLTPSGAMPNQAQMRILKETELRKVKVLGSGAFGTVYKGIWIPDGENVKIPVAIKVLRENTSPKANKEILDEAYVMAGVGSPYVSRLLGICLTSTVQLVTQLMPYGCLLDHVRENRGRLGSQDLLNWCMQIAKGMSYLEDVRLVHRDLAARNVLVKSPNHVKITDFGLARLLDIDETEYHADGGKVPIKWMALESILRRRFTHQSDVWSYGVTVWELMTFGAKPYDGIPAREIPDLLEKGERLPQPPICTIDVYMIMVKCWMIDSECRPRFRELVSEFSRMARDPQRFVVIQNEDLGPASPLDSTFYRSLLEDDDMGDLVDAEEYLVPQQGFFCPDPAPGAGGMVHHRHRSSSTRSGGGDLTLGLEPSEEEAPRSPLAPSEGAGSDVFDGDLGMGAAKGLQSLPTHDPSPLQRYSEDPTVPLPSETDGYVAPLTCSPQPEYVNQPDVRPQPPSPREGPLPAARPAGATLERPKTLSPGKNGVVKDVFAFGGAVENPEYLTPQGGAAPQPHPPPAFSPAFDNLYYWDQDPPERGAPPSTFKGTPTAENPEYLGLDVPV
Protocol: (§3) In accordance with the documented procedures, fifteen derivatives of the synthesized compounds were evaluated for their inhibitory effects on EGFR, VEGFR-2, Her2, and CDK2 using specific human ELISA kits (Enzyme-Linked Immunosorbent Assay) designed for each respective kinase enzyme. Initially, various concentrations of the synthesized compounds were combined with specific antibodies for each enzyme in individual wells of a 96-well plate, followed by incubation at room temperature for 2.5 h. Subsequently, the plate was washed, and a biotin antibody (100 µL), prepared in-house, was added and allowed to incubate at ambient temperature for 1 h. After another washing step, a solution of streptavidin (100 µL) was introduced to each well and left for 45 min at room temperature. Following a third round of washing, a TMB Substrate (100 µL) reagent was applied to all wells and incubated for 30 min at room temperature. Finally, the reaction was terminated by adding 50 µL of a stop solution, and the absorbance was directly measured at 450 nm. A standard curve was constructed, illustrating the relationship between concentration (X-axis) and absorbance (Y-axis).

[7] = target: T2, EGFR (Homo sapiens, UniProt P00533); experiment: as above; type: biochemical; details: triplicate
T2 construct: purchased
T2 sequence (P00533 25-1210): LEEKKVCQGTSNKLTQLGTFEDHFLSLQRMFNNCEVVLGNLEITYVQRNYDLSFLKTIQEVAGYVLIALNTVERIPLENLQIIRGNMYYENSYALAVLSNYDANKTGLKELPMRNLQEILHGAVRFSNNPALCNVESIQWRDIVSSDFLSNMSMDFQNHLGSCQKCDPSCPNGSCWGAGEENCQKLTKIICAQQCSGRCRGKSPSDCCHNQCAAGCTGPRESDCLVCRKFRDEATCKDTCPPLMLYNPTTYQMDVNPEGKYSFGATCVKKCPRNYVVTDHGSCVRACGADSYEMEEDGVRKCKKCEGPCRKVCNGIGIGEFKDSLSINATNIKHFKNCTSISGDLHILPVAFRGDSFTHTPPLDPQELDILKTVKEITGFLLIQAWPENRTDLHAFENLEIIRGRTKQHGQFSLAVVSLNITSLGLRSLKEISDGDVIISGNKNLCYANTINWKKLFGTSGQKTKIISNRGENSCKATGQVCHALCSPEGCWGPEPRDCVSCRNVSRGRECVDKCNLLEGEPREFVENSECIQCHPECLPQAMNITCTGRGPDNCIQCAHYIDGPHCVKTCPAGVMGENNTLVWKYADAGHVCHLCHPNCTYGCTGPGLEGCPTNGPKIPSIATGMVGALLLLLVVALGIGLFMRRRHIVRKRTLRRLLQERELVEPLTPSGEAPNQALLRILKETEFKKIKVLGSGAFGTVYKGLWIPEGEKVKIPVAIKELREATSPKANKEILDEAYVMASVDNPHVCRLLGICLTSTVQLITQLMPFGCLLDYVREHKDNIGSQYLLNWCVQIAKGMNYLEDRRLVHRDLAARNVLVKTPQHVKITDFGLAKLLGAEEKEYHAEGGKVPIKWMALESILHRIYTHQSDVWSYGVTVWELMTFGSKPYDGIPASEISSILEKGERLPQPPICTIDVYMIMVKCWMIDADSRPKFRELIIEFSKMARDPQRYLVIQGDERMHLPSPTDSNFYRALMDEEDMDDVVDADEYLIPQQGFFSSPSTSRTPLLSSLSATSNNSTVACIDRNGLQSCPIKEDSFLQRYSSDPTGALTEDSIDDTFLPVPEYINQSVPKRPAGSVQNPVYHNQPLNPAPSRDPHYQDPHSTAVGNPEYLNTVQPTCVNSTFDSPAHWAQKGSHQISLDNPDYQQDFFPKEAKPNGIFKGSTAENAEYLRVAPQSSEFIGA
Protocol: as §3

[8] = target: T3, CDK2 (Homo sapiens, UniProt P24941); experiment: as above; type: biochemical; details: triplicate
T3 construct: purchased
Protocol: as §3

[9] = target: T4, VEGFR2 (Homo sapiens, UniProt P35968); experiment: as above; type: biochemical; details: triplicate
T4 construct: purchased
T4 sequence (P35968 20-1356): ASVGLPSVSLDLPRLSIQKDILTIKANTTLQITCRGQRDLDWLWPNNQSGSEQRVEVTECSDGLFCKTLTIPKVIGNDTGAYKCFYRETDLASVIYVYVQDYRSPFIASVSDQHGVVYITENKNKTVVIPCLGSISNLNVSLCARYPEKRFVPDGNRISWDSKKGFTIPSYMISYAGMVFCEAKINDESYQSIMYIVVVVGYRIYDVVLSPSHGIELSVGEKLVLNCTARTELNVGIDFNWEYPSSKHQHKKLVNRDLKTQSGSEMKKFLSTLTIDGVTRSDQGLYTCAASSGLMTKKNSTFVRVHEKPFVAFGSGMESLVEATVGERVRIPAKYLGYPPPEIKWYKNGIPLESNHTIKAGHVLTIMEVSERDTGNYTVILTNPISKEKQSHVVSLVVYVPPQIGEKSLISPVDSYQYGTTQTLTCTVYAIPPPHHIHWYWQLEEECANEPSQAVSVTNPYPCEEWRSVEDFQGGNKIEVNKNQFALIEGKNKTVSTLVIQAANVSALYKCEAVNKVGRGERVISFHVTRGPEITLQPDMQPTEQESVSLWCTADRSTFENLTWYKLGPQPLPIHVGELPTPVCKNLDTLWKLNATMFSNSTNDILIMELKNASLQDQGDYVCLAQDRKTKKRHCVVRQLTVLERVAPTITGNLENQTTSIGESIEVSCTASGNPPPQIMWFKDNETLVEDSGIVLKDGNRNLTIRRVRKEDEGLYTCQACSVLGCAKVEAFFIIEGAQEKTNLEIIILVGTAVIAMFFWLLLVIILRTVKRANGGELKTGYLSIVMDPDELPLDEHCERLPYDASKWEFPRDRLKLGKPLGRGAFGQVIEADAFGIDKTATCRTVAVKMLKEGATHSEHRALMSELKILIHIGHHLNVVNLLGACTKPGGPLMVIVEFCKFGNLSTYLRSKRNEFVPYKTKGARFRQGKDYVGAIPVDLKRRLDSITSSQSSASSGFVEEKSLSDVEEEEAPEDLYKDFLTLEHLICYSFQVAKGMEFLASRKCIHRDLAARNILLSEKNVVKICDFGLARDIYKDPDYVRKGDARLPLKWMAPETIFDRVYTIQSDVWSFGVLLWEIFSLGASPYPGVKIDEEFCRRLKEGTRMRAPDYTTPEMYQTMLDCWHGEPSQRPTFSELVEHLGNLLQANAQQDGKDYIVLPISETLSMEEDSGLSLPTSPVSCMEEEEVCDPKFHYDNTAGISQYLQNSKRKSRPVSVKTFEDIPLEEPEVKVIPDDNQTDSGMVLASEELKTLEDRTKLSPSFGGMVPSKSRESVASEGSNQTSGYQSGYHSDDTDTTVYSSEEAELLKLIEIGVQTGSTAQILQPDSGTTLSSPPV
Protocol: as §3

[10] = test system: Bax; experiment: Apoptotic protein levels assay (ELISA) in HepG2 cells; type: cell-based; details: 24 h, ELISA, control 67.09 ± 4.94
Description: (§4) To validate the mechanism of cell death and the induction of apoptosis caused by compound 5k, the expression levels of some apoptotic proteins were investigated. […] Specifically, the levels of caspase-3 (6.9 folds higher than the control) and Bax (2.6 folds higher than the control) were higher in the group treated with 5k compared to the control group. Caspase-3 is a key enzyme involved in the execution of apoptosis, while Bax is a pro-apoptotic protein that promotes cell death. […] Bcl-2 is a protein that inhibits apoptosis, so the lower levels of Bcl-2 in the 5k treated group further support the notion that treatment with 5k may induce apoptosis in HepG2 cells. […] These findings may have implications for the development of novel therapies for diseases involving abnormal cell death, including cancer. Further studies are warranted in order to elucidate the underlying mechanisms of action of compound 5k and to assess its potential therapeutic applications.
(§5) The ELISA technique was employed to assess the impact of compound 5k on the alteration of protein levels associated with caspase-3, BAX, and Bcl-2. Specifically, the following ELISA kits were utilized: KHO1091 (InvitrogenTM, Grand Island, NY, USA) for caspase-3, EIA-4860 and EIA-4487 for BAX, (DRU International INC., Mountainside, NJ, USA), and 99-0042 (InvitrogenTM, Grand Island, NY, USA) for Bcl-2 for the respective measurements. The experimental procedures were conducted according to the instructions provided by the manufacturers and our recently published article. Initially, HepG2 cells were cultured in triplicate in 96-well plates. Following a 24-h incubation period, the cells were subjected to various concentrations of compound 5k, while a control group was treated with 0.1% DMSO (V/V). After an additional 24-h incubation, the absorbance levels were assessed using a BioTek Synergy H1 Multi-mode Reader (Agilent Technologies, Santa Clara, CA, USA) at wavelengths ranging from 450 to 650 nm.

[11] = test system: Bcl-2; experiment: as above; type: cell-based; details: 24 h, ELISA, control 11.7 ± 0.36
Description: as §4, §5

[12] = test system: caspase-3; experiment: as above; type: cell-based; details: 24 h, ELISA, control 66.28 ± 4.66
Description: as §4, §5

Row | melting point [°C] | IC50 [6] [nM] | IC50 [7] [nM] | IC50 [8] [nM] | IC50 [9] [nM] | Compound | IC50 [1] [µM] | IC50 [2] [µM] | IC50 [3] [µM] | IC50 [4] [µM] | IC50 [5] [µM] | Protein Expression (Pg/mL) Bax [10] [pg/mL] | Protein Expression (Pg/mL) Bcl-2 [11] [pg/mL] | Protein Expression (Pg/mL) Caspase-3 [12] [pg/mL]
1 | 294 |  |  |  |  | O=C(N/N=C/c1ccccc1)c1ccc(Nc2ncnc3[nH]ccc23)cc1 [Compound 5a, (E)-4-((7H-Pyrrolo[2,3-d]pyrimidin-4-yl)amino)-N’-benzylidenebenzohydrazide] | 68.2 ± 3.3 | 64.9 ± 3.6 | 43.1 ± 2.7 | 56.2 ± 3.2 | 43.1 to 68.2 |  |  | 
2 | 294 |  |  |  |  | O=C(N/N=C/c1ccccc1Br)c1ccc(Nc2ncnc3[nH]ccc23)cc1 [Compound 5b, (E)-4-((7H-Pyrrolo[2,3-d]pyrimidin-4-yl)amino)-N’-(2-bromobenzylidene)benzohydrazide] | 90.6 ± 4.7 | 83.9 ± 4.3 | 53.2 ± 3.1 | 79.2 ± 4.1 |  |  |  | 
3 | 296 |  |  |  |  | O=C(N/N=C/c1cccc(Br)c1)c1ccc(Nc2ncnc3[nH]ccc23)cc1 [Compound 5c, (E)-4-((7H-Pyrrolo[2,3-d]pyrimidin-4-yl)amino)-N’-(3-bromobenzylidene)benzohydrazide] | 85.5 ± 4.1 | 80.7 ± 4 | 48.5 ± 2.9 | 75.8 ± 3.9 |  |  |  | 
4 |  | 206 | 636 | 1020 | 1040 | O=C(N/N=C/c1ccccc1F)c1ccc(Nc2ncnc3[nH]ccc23)cc1 [Compound 5h, (E)-4-((7H-Pyrrolo[2,3-d]pyrimidin-4-yl)amino)-N’-(2-fluorobenzylidene)benzohydrazide] | 49.9 ± 2.8 | 52.4 ± 2.9 | 33.2 ± 2.4 | 45.2 ± 2.5 | 29 to 59 |  |  | 
5 |  | 335 | 1140 | 2120 | 593 | O=C(N/N=C/c1ccccc1Cl)c1ccc(Nc2ncnc3[nH]ccc23)cc1 [Compound 5e, (E)-4-((7H-Pyrrolo[2,3-d]pyrimidin-4-yl)amino)-N’-(2-chlorobenzylidene)benzohydrazide] | 53 ± 2.9 | 55.3 ± 3.1 | 29.1 ± 2.5 | 48.1 ± 2.6 | 29 to 59 |  |  | 

Second part, the molecule before the results:

Row | Compound | melting point [°C] | IC50 [6] [nM] | IC50 [7] [nM] | IC50 [8] [nM] | IC50 [9] [nM] | IC50 [1] [µM] | IC50 [2] [µM] | IC50 [3] [µM] | IC50 [4] [µM] | IC50 [5] [µM] | Protein Expression (Pg/mL) Bax [10] [pg/mL] | Protein Expression (Pg/mL) Bcl-2 [11] [pg/mL] | Protein Expression (Pg/mL) Caspase-3 [12] [pg/mL]
6 | O=C(N/N=C/c1cccc(C(F)(F)F)c1)c1ccc(Nc2ncnc3[nH]ccc23)cc1 [Compound 5m, (E)-4-((7H-Pyrrolo[2,3-d]pyrimidin-4-yl)amino)-N’-(3-(trifluoromethyl)benzylidene)benzohydrazide] | 280 |  |  |  |  | 64.5 ± 3.4 | 61.9 ± 3.3 | 39.8 ± 2.7 | 53.7 ± 3 |  |  |  | 
7 | O=C(N/N=C/c1cccc(Cl)c1)c1ccc(Nc2ncnc3[nH]ccc23)cc1 [Compound 5f, (E)-4-((7H-Pyrrolo[2,3-d]pyrimidin-4-yl)amino)-N’-(3-chlorobenzylidene)benzohydrazide] | 281 |  |  |  |  | > 100 | 94.7 ± 4.9 | 74.6 ± 3.9 | 86.6 ± 4.6 |  |  |  | 
8 | O=C(N/N=C/c1cccc(F)c1)c1ccc(Nc2ncnc3[nH]ccc23)cc1 [Compound 5i, (E)-4-((7H-Pyrrolo[2,3-d]pyrimidin-4-yl)amino)-N’-(3-fluorobenzylidene)benzohydrazide] | 295 |  |  |  |  | 76.1 ± 3.7 | 69.9 ± 3.8 | 45 ± 2.8 | 63.8 ± 3.5 |  |  |  | 
9 | O=C(N/N=C/c1ccc(Cl)cc1)c1ccc(Nc2ncnc3[nH]ccc23)cc1 [Compound 5g, (E)-4-((7H-Pyrrolo[2,3-d]pyrimidin-4-yl)amino)-N’-(4-chlorobenzylidene)benzohydrazide] | 314 |  |  |  |  | 79.7 ± 3.9 | 73.3 ± 3.9 | 51.9 ± 3 | 67.6 ± 3.7 |  |  |  | 
10 | CN[C@@H]1C[C@H]2O[C@@](C)([C@@H]1OC)n1c3ccccc3c3c4c(c5c6ccccc6n2c5c31)C(=O)NC4 [Staurosporine, reference compound] |  |  |  |  |  |  |  |  |  |  | 276.9 ± 2.26 | 4.404 ± 0.09 | 684.6 ± 13.4
11 | CCN(CC)CCNC(=O)c1c(C)[nH]c(/C=C2\C(=O)Nc3ccc(F)cc32)c1C [Sunitinib, reference compound] |  |  |  |  |  | 21.8 ± 1.7 |  |  |  |  |  |  | 
12 | O=C(N/N=C/c1cc(Br)ccc1O)c1ccc(Nc2ncnc3[nH]ccc23)cc1 [Compound 5l, (E)-4-((7H-Pyrrolo[2,3-d]pyrimidin-4-yl)amino)-N’-(5-bromo-2-hydroxybenzylidene)benzohydrazide] |  | 193 | 406 | 599 | 1200 | 46.1 ± 2.4 | 47.1 ± 2.5 | 36.3 ± 2.6 | 41.3 ± 2.4 | 29 to 59 |  |  | 
13 | O=C(N/N=C/c1ccc(F)cc1)c1ccc(Nc2ncnc3[nH]ccc23)cc1 [Compound 5j, (E)-4-((7H-Pyrrolo[2,3-d]pyrimidin-4-yl)amino)-N’-(4-fluorobenzylidene)benzohydrazide] | 309 |  |  |  |  | 71.7 ± 3.5 | 66.4 ± 3.6 | 42.6 ± 2.8 | 58.5 ± 3.3 |  |  |  | 
14 | O=C(N/N=C/c1ccc(Br)cc1)c1ccc(Nc2ncnc3[nH]ccc23)cc1 [Compound 5d, (E)-4-((7H-Pyrrolo[2,3-d]pyrimidin-4-yl)amino)-N’-(4-bromobenzylidene)benzohydrazide] | 321 |  |  |  |  | 95.8 ± 5.1 | 88.2 ± 4.5 | 62.4 ± 3.5 | 81.5 ± 4 |  |  |  | 
